Source: ChEMBL document CHEMBL3779856, “Synthesis and antiproliferative activity of 6,7-disubstituted-4-phenoxyquinoline derivatives bearing the 2-oxo-4-chloro-1,2-dihydroquinoline-3-carboxamide moiety” (Bioorg Med Chem Lett, 2016)

How the values were obtained:
[1] = Cytotoxicity against human U87MG cells assessed as cell growth inhibition after 72 hrs by MTT assay; format: functional, cell-based, U-87MG ATCC; settings: U-87 MG
A549 = assay: Cytotoxicity against human A549 cells assessed as cell growth inhibition after 72 hrs by MTT assay; format: functional, cell-based; settings: A549, 72 h
HT-29 [2] = assay: cells; settings: Homo sapiens, HT-29, 72 h
Description: Cytotoxicity against human HT-29 cells assessed as cell growth inhibition after 72 hrs by MTT assay

cells [3] = settings: Homo sapiens, NCI-H460, 72 h
Description: Cytotoxicity against human H460 cells assessed as cell growth inhibition after 72 hrs by MTT assay

cells [4] = settings: Homo sapiens, MKN-45, 72 h
Description: Cytotoxicity against human MKN45 cells assessed as cell growth inhibition after 72 hrs by MTT assay

[5] = target: Hepatocyte growth factor receptor (Homo sapiens, UniProt P08581); assay: Inhibition of cMet (unknown origin) using poly (Glu, Tyr) 4:1 as substrate after 30 mins by HTRF assay
Sequence of Hepatocyte growth factor receptor (P08581 whole entry): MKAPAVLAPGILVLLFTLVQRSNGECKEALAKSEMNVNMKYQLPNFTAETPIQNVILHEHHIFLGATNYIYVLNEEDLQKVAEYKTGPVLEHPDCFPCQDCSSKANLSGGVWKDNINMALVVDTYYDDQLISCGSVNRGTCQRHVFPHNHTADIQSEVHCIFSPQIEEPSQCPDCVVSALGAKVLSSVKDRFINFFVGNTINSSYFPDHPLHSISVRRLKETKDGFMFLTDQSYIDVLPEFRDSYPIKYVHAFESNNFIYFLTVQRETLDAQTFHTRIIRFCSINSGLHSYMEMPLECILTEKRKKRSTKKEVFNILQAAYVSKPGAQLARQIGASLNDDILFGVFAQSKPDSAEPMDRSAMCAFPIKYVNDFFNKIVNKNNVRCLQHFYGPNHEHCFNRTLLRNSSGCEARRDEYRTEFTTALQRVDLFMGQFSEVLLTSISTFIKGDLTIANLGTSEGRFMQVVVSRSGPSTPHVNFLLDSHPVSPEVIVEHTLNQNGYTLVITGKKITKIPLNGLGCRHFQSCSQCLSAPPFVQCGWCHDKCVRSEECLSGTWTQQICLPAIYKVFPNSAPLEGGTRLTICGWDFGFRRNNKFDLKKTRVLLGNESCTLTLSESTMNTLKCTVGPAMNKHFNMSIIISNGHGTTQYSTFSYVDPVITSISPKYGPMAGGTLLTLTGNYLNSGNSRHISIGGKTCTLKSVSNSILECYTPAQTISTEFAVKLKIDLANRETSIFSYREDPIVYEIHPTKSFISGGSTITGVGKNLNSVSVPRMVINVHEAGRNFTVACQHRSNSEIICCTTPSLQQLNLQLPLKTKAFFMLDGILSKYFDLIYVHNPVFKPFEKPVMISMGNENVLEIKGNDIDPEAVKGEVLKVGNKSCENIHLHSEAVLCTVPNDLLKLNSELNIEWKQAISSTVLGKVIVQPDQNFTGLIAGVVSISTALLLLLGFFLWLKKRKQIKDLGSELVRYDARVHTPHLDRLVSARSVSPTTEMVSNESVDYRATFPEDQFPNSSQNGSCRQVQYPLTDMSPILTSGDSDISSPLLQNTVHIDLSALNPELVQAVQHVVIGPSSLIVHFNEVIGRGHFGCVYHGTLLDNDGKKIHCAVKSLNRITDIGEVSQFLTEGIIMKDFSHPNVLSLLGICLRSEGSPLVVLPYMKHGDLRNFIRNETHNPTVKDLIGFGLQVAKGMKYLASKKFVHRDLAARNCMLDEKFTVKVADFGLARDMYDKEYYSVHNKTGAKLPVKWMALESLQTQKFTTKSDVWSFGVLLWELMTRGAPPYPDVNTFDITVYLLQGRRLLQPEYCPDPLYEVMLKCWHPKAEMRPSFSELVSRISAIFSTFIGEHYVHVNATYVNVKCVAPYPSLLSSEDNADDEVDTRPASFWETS

[6] = Potency index, ratio of foretinib IC50 to compound IC50 for human H460 cells; format: functional
HT-29 [7] = assay: Potency index, ratio of foretinib IC50 to compound IC50 for human HT-29 cells; format: functional
U-87 MG = assay: Potency index, ratio of foretinib IC50 to compound IC50 for human U87MG cells; format: functional, U-87MG ATCC
[8] = target: T1, Receptor-type tyrosine-protein kinase FLT3 (Homo sapiens, UniProt P36888); assay: Inhibition of FLT3 (unknown origin) using poly (Glu, Tyr) 4:1 as substrate after 30 mins by HTRF assay
T1 sequence (P36888 whole entry): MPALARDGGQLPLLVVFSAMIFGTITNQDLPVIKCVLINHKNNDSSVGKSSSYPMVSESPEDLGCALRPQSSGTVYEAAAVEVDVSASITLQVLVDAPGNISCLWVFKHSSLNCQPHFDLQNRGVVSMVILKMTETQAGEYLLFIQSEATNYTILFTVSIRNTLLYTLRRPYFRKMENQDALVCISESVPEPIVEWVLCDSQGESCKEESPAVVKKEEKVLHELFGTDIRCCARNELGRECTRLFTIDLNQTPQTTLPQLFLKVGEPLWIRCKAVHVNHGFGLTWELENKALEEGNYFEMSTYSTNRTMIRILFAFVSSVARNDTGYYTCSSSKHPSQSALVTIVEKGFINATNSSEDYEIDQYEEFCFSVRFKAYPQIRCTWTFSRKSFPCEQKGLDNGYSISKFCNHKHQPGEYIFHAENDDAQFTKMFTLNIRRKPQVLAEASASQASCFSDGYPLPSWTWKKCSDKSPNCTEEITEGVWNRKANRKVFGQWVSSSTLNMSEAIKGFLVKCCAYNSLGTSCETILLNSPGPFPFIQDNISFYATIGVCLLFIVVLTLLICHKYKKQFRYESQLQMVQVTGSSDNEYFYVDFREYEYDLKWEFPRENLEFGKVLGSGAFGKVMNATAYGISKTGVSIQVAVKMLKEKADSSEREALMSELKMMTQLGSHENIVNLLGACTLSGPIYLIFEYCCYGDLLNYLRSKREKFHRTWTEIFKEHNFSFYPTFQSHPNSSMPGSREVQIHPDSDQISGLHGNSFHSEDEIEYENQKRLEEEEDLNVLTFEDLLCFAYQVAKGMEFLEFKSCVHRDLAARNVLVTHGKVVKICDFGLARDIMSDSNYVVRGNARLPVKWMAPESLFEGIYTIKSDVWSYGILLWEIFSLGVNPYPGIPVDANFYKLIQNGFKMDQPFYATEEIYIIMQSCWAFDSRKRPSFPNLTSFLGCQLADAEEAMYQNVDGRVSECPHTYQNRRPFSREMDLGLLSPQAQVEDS

[9] = target: Mast/stem cell growth factor receptor Kit (Homo sapiens, UniProt P10721); assay: Inhibition of cKIT (unknown origin) using poly (Glu, Tyr) 4:1 as substrate after 30 mins by HTRF assay
Sequence of Mast/stem cell growth factor receptor Kit (P10721 whole entry): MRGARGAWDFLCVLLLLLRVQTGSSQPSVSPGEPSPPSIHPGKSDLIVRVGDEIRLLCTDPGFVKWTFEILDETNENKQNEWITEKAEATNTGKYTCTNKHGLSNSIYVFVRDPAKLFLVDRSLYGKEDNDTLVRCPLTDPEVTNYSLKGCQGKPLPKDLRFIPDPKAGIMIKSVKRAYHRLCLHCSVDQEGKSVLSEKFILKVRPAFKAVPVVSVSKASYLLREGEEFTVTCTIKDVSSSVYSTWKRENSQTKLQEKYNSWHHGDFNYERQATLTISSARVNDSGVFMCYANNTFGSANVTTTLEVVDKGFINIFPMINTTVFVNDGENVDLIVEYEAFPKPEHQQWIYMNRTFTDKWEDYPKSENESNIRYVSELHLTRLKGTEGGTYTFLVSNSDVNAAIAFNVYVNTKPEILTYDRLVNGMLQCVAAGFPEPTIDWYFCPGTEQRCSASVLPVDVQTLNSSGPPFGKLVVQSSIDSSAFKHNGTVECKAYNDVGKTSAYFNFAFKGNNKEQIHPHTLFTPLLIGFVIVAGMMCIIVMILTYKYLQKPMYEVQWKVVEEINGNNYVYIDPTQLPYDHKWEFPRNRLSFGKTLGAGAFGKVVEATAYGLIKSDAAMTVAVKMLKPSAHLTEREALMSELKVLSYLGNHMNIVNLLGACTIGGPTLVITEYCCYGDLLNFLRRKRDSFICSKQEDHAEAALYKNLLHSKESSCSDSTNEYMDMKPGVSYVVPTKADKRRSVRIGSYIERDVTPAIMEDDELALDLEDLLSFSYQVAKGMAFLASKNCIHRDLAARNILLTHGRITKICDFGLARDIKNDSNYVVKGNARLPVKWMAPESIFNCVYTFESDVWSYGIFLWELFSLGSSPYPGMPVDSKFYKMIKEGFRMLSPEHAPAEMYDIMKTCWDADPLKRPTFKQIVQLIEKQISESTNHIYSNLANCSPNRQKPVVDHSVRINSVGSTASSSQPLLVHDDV

[10] = target: Platelet-derived growth factor receptor beta (Homo sapiens, UniProt P09619); assay: Inhibition of PDGFRbeta (unknown origin) using poly (Glu, Tyr) 4:1 as substrate after 30 mins by HTRF assay
[11] = target: Vascular endothelial growth factor receptor 2 (Homo sapiens, UniProt P35968); assay: Inhibition of VEGFR-2 (unknown origin) using poly (Glu, Tyr) 4:1 as substrate after 30 mins by HTRF assay
Sequence of Vascular endothelial growth factor receptor 2 (P35968 whole entry): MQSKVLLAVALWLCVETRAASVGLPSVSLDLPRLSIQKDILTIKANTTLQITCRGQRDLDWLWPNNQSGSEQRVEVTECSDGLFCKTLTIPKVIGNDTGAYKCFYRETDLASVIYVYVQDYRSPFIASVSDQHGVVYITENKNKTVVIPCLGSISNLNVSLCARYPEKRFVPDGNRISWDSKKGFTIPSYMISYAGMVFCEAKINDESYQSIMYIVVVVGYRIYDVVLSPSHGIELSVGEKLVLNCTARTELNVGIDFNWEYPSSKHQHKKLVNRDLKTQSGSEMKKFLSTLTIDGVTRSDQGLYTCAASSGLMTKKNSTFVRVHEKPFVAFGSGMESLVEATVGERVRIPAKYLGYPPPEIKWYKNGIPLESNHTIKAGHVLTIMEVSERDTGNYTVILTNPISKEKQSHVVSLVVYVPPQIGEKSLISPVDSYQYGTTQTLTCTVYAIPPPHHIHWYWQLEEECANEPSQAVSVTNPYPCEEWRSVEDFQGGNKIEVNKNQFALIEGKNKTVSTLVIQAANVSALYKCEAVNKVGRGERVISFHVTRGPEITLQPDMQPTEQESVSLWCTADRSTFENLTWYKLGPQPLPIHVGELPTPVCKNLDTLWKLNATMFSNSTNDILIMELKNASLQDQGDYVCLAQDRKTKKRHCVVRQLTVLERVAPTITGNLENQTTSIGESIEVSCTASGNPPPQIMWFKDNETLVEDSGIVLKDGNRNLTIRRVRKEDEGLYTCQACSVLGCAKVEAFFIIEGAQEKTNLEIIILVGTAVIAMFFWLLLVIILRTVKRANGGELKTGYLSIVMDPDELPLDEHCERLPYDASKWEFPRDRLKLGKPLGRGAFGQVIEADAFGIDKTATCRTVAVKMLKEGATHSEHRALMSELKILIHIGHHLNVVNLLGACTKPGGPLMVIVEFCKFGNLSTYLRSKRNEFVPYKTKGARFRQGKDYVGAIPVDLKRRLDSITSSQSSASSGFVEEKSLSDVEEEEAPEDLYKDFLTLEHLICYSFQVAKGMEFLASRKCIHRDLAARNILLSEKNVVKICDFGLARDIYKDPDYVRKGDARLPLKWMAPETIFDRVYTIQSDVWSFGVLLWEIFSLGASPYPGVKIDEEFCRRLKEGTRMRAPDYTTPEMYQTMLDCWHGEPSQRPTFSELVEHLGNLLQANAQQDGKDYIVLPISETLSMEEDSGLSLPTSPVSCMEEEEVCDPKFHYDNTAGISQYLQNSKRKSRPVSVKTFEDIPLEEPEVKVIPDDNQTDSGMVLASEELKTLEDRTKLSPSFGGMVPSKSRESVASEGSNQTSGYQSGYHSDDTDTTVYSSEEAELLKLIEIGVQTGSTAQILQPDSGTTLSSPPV

[12] = target: Epidermal growth factor receptor (Homo sapiens, UniProt P00533); assay: Inhibition of EGFR (unknown origin) using poly (Glu, Tyr) 4:1 as substrate after 30 mins by HTRF assay
Sequence of Epidermal growth factor receptor (P00533 whole entry): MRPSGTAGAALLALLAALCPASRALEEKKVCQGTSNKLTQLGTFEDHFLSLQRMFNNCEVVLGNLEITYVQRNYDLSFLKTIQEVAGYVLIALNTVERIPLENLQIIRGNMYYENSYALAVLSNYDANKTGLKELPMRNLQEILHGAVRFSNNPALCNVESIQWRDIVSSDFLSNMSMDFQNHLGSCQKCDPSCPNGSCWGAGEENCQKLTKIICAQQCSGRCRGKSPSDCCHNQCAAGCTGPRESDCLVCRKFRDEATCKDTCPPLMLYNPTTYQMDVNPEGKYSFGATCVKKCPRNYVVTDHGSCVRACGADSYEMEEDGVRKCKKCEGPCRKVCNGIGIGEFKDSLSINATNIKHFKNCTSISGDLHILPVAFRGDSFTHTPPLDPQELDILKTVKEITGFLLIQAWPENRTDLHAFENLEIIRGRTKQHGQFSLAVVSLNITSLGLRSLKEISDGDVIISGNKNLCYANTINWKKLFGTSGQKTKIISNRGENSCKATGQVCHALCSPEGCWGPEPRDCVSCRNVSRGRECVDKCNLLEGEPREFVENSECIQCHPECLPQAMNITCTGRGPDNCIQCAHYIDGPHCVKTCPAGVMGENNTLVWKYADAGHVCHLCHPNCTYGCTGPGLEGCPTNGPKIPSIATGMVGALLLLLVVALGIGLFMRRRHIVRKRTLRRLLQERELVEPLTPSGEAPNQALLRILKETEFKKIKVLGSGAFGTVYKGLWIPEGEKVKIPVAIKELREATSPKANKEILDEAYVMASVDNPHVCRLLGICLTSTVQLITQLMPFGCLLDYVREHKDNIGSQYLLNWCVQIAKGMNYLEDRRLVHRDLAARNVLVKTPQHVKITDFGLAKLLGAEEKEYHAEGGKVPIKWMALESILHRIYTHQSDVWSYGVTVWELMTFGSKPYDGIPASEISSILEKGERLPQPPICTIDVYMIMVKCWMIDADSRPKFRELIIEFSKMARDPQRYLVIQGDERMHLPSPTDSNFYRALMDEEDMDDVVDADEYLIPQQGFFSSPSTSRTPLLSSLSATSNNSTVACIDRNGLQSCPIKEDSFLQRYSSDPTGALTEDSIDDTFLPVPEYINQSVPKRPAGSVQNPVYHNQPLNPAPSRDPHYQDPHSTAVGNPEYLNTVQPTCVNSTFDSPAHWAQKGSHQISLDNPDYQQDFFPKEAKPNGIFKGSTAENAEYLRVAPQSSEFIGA

Row | Structure (SMILES) | IC50 [1] [nM] | IC50 (A549) [nM] | IC50 (HT-29 [2]) [nM] | IC50 (cells [3]) [nM] | IC50 (cells [4]) [nM] | IC50 [5] [nM] | Ratio IC50 [6] | Ratio IC50 (HT-29 [7]) | Ratio IC50 (U-87 MG) | IC50 [8] [nM] | IC50 [9] [nM] | IC50 [10] [nM] | IC50 [11] [nM] | IC50 [12] [nM]
1 | COc1cc2c(Oc3ccc(NC(=O)c4c(Cl)c5ccccc5n(-c5ccc(C)cc5)c4=O)cc3F)ccnc2cc1OCCCN1CCOCC1 | 5160 | 830 | 390 | 850 | 780 |  |  |  |  |  |  |  |  | 
2 | COc1cc2c(Oc3ccc(NC(=O)c4c(Cl)c5ccccc5n(-c5ccccc5OC(F)(F)F)c4=O)cc3F)ccnc2cc1OCCCN1CCCC1 |  |  | 1500 | 360 | 1400 |  |  |  |  |  |  |  |  | 
3 | COc1cc2c(Oc3ccc(NC(=O)c4c(Cl)c5ccccc5n(-c5ccccc5)c4=O)cc3F)ccnc2cc1OCCCN1CCCC1 | 1600 | 810 | 390 | 210 | 210 |  |  |  |  |  |  |  |  | 
4 | COc1cc2c(Oc3ccc(NC(=O)c4c(Cl)c5ccccc5n(-c5ccccc5OC)c4=O)cc3F)ccnc2cc1OCCCN1CCOCC1 |  |  | 1400 | 1200 | 1260 |  |  |  |  |  |  |  |  | 
5 | COc1cc2c(Oc3ccc(NC(=O)c4c(Cl)c5ccccc5n(-c5ccc(C)cc5)c4=O)cc3F)ccnc2cc1OCCCN1CCN(C)CC1 | 1060 | 310 | 150 | 120 | 120 |  |  |  |  |  |  |  |  | 
6 | COc1cc2c(Oc3ccc(NC(=O)c4c(Cl)c5ccccc5n(-c5ccccc5F)c4=O)cc3F)ccnc2cc1OCCCN1CCN(C)CC1 | 1320 | 290 | 170 | 270 | 410 |  |  |  |  |  |  |  |  | 
7 | COc1cc2c(Oc3ccc(NC(=O)c4c(Cl)c5ccccc5n(-c5ccc(F)cc5)c4=O)cc3F)ccnc2cc1OCCCN1CCCC1 | 640 | 720 | 150 | 120 | 570 | 12.5 |  |  |  |  |  |  |  | 
8 | COc1cc2c(Oc3ccc(NC(=O)c4c(Cl)c5ccccc5n(-c5ccccc5)c4=O)cc3F)ccnc2cc1OCCCN1CCCCC1 | 1300 | 510 | 41600 | 140 | 280 | 18.4 |  |  |  |  |  |  |  | 
9 | COc1cc2c(Oc3ccc(NC(=O)c4c(Cl)c5ccccc5n(-c5ccccc5)c4=O)cc3F)ccnc2cc1OCCCN1CCC(C)CC1 | 1420 | 390 | 350 | 150 | 460 | 6.84 |  |  |  |  |  |  |  | 
10 | COc1cc2c(Oc3ccc(NC(=O)c4c(Cl)c5ccccc5n(-c5ccc(F)cc5)c4=O)cc3F)ccnc2cc1OCCCN1CCN(C)CC1 | 520 | 110 | 68 | 31 | 160 | 1.21 | 6.1 | 2.4 | 2.1 | 2.15 | 363 | 526 | 543 | > 100000
11 | COc1cc2c(Oc3ccc(NC(=O)c4c(Cl)c5ccccc5n(-c5ccccc5)c4=O)cc3F)ccnc2cc1OCCCN1CCOCC1 | 4800 | 930 | 460 | 260 | 310 |  |  |  |  |  |  |  |  | 
12 | COc1cc2c(Oc3ccc(NC(=O)c4c(Cl)c5ccccc5n(-c5ccc(F)cc5)c4=O)cc3F)ccnc2cc1OCCCN1CCOCC1 | 8500 | 110 | 140 | 61 | 210 | 5.32 |  |  |  |  |  |  |  | 
13 | COc1cc2c(Oc3ccc(NC(=O)c4c(Cl)c5ccccc5n(-c5ccc(C)cc5)c4=O)cc3F)ccnc2cc1OCCCN1CCC(C)CC1 | 3200 | 350 | 190 | 180 | 120 |  |  |  |  |  |  |  |  | 
14 | COc1cc2c(Oc3ccc(NC(=O)c4c(Cl)c5ccccc5n(-c5ccc(F)cc5)c4=O)cc3F)ccnc2cc1OCCCN1CCCCC1 | 1600 | 160 | 290 | 110 | 310 | 12.2 |  |  |  |  |  |  |  | 
15 | COc1cc2c(Oc3ccc(NC(=O)c4c(Cl)c5ccccc5n(-c5ccccc5OC)c4=O)cc3F)ccnc2cc1OCCCN1CCCCC1 |  |  | 12600 | 580 | 420 |  |  |  |  |  |  |  |  | 
16 | COc1cc2c(Oc3ccc(NC(=O)c4c(Cl)c5ccccc5n(-c5ccccc5OC)c4=O)cc3F)ccnc2cc1OCCCN1CCN(C)CC1 |  |  | 530 | 150 | 120 |  |  |  |  |  |  |  |  | 
17 | COc1cc2c(Oc3ccc(NC(=O)c4c(Cl)c5ccccc5n(-c5ccccc5OC(F)(F)F)c4=O)cc3F)ccnc2cc1OCCCN1CCC(C)CC1 |  |  | 570 | 380 | 310 |  |  |  |  |  |  |  |  | 
18 | COc1cc2c(Oc3ccc(NC(=O)c4c(Cl)c5ccccc5n(-c5ccc(C)cc5)c4=O)cc3F)ccnc2cc1OCCCN1CCCC1 | 3240 | 230 | 480 | 230 | 900 |  |  |  |  |  |  |  |  | 
19 | COc1cc2c(Oc3ccc(NC(=O)c4c(Cl)c5ccccc5n(-c5ccc(F)cc5)c4=O)cc3F)ccnc2cc1OCCCN1CCC(C)CC1 | 1920 | 990 | 110 | 89 | 160 | 3.26 |  |  |  |  |  |  |  | 
20 | COc1cc2c(Oc3ccc(NC(=O)c4c(Cl)c5ccccc5n(-c5ccccc5)c4=O)cc3F)ccnc2cc1OCCCN1CCN(C)CC1 |  |  | 91 | 61 | 120 | 1.75 |  |  |  |  |  |  |  | 
21 | COc1cc2c(Oc3ccc(NC(=O)c4c(Cl)c5ccccc5n(-c5ccccc5F)c4=O)cc3F)ccnc2cc1OCCCN1CCOCC1 |  |  | 1210 | 580 | 740 |  |  |  |  |  |  |  |  | 
22 | COc1cc2c(Oc3ccc(NC(=O)c4c(Cl)c5ccccc5n(-c5ccc(C)cc5)c4=O)cc3F)ccnc2cc1OCCCN1CCCCC1 |  |  | 520 | 170 | 480 |  |  |  |  |  |  |  |  | 
23 | COc1cc2c(Oc3ccc(NC(=O)c4c(Cl)c5ccccc5n(-c5cc(C)cc(C)c5)c4=O)cc3F)ccnc2cc1OCCCN1CCCC1 |  |  | 300 | 620 | 1200 |  |  |  |  |  |  |  |  | 
